# Laboratory results published in patent US20260274828A1, “BROAD SPECTRUM ANTIFUNGAL KETO-ALKYL-PYRIDINIUM COMPOUNDS” (priority 2023, published 2026).
# Where two headings read alike, the source gives them in different places.
# Experiments:
# C. auris = experiment: Planktonic MIC, CLSI guidelines; format: cell-based, Candida auris; details: Candidozyma auris
# Description: (§1) Minimum inhibitory concentrations were determined using CLSI guidelines (Beattie & Krysan, 2021; Wiederhold, 2021). All yeasts were cultured overnight in 3 mL YPD at 30° C., then washed twice in sterile PBS. Two-fold serial dilutions of each compound were prepared in RMPI+MOPS pH 7 (Gibco RPMI 1640 with L-glutamine [11875-093] and 0.165M 352 MOPS), then 1×10^3 cells were added per well. Plates were incubated at 37° C. for 24 hours (C. albicans and S. cerevisiae) or 72 hours (C. neoformans). For A. fumigatus and F. oxysporum wells were inoculated with 1.25×10^4 conidia. Plates were incubated at 37° C. for 48 hours for A. fumigatus and 72 hours for F. oxysporum. All MICs are defined as the well with complete growth inhibition as determined by visual inspection with the exception of MICs of fluconazole against C. albicans where the MIC is defined as at least 50% reduction in growth compared to the control.
# C. albicans SC5314 = experiment: Rat model of Candida albicans vascular catheter infection; format: in vivo
# Description: C. albicans biofilm growth during infection of implanted medical devices was measured using an external jugular-vein, rat-catheter infection model (Nett et al., 2012). Briefly, a 1×10^6 cells/ml inoculum for each strain or strain combination was allowed to grow on an internal jugular catheter placed in a pathogen-free female rat (16-week old, 400 g) for 24 hours. After this period, the catheter volumes were removed and the catheters were flushed with 0.9% NaCl. The biofilms were dislodged by sonication and vortexing. Viable cell counts were determined by dilution plating. Three replicates were performed for each strain.
# After a 24 hours biofilm formation phase, the devices were removed, sectioned to expose the intraluminal surface, and processed for SEM imaging. Briefly, one milliliter fixative (4% formaldehyde and 1% glutaraldehyde in PBS) was added to each catheter tube and tubes were fixed at 4° C. overnight. Catheters were then washed with PBS prior to incubation in 1% OsO4 for 30 minutes. Samples were then serially dehydrated in ethanol (30-100%). Critical point drying was used to completely dehydrate the samples prior to palladium-gold coating. Samples were imaged on a SEM LEO 1530, with Adobe Photoshop 2022 (v. 23.2.2) used for image compilation.
# One potential approach to managing central venous catheter infections is to treat the lumen of the catheter with an anti-infective solution that is locked within the catheter and not introduced into the patient (Chandra et al., 2018). This strategy is most often applied to catheters infected with bacteria but has been proposed for fungal infections as well (Pappas et al., 2016; Mermel et al., 2009). To test the efficacy of KAPs in this setting, a rat model of C. albicans venous catheter infection was employed (Nett et al., 2023). The catheter was infected with C. albicans SC5314 and, on post-infection day 1, treated with A (8 μg/mL solution within catheter) or vehicle. After 24 hours, the catheter was removed and processed for fungal burden and scanning electron microscopy. […]
# S. aureus = experiment: Antibacterial MIC; format: cell-based; details: Staphylococcus aureus; strain Newman
# A. terreus = experiment: Planktonic MIC, CLSI guidelines; format: cell-based; details: Aspergillus terreus; strain CFF S023
# HepG2 cells = experiment: Mammalian cell culture toxicity assay (LDH release and XTT); format: cell-based, human
# Description: HepG2 cells (ATCC, #) were maintained and cultured in HepG2 media (DMEM (Gibco, Cat #11965-092) with 5% FBS, 20 mM Glutamine, and Penicillin/Streptomycin) at 37° C. with 5% CO2. Cells were seeded in 96-well plates at a density of 1.25×10^4 cells/well and incubated overnight at 37° C. with 5% CO2, then media was removed and replaced with media containing a two-fold dilution series of compounds with equal DMSO concentrations across all wells including no compound controls. Cells were incubated for an additional 24 hours. Supernatant was removed and used to quantify lactate dehydrogenase release using the CyQuant LDH assay kit (Invitrogen, Cat #C20300) following the manufacturer's directions. LDH signal was normalized to a max lysis control. The remaining cells were then used to quantify cellular metabolism by XTT. Briefly, cells were washed, then 0.9 mg/mL XTT (Sigma, CAT #X4626)+320 μg/mL PMS ([…] methosulfate; Sigma, Cat #P9625) in HepG2 media was added to each well. Plates were incubated at 37° C., with 5% CO2 for 2 hours, then absorbance was measured at 490 nm.
# C. albicans [1] = experiment: Planktonic MIC, CLSI guidelines; format: cell-based, Candida albicans
# Description: as §1
# red blood cells = experiment: Red blood cell lysis assay; format: cell-based, sheep; details: 2 h, normalized to max lysis by triton-x
# Description: Hemolysis assays were performed with defibrinated sheep's blood (Lampire, Cat #7239001). Blood was washed three times with PBS then resuspended to about 50% hematocrit in PBS. A two-fold dilution series of the compounds in 200 μL PBS with equal DMSO concentration across the series, then red blood cells were added with a final concentration of 2% hematocrit. Cells were incubated at RT for 2 hours in a v-bottom microtiter plate, then plates were spun down and supernatant was transferred to a flat bottom microtiter plate for absorbance measurement at 570 nm. Compounds were tested in technical triplicate in at least two independent assays performed on different days.
# C. albicans [2] = experiment: Planktonic MIC, CLSI guidelines; format: cell-based, Candida albicans; details: data not shown
# [3] = 8 μg/mL solution within catheter, 24 hours
compound,measurement,setting,value
Nc1cc[n+](CC(=O)c2ccc3c(c2)OC(c2ccccc2)(c2ccccc2)O3)cc1.[Cl-] [Compound A],MIC,"C. auris; strain 0381, drug susceptible",8 µg/mL
same,MIC,"C. auris; strain 0390, multi-drug resistant",2 µg/mL
same,extent of remaining biofilm (scanning electron microscopy),C. albicans SC5314; [3],dramatic reduction
same,reduction in fungal burden relative to vehicle-treated catheters,C. albicans SC5314; [3],> 1 log10
same,fungal burden of the catheter,"C. albicans SC5314; 8 μg/mL, 24 hr",significantly reduced
same,MIC,S. aureus,32 µg/mL
same,MIC,A. terreus,2 to 4 µg/mL
same,"LD50, cell lysis assay","HepG2 cells; HepG2, LDH release, 24 h",9 µg/mL
same,"LD50, metabolic activity assay","HepG2 cells; HepG2, XTT, 24 h",20 µg/mL
same,"LD50, toxicity against human cell lines",HepG2 cells; readout not given,9 µg/mL
same,MIC,"C. albicans [1]; Candida albicans, strain SC5314, read-out: MIC",4 µg/mL
same,MIC,"C. albicans [1]; Candida albicans, strain TWO #15, fluconazole-resistant, read-out: MIC",4 µg/mL
same,MIC,"C. albicans [1]; strain TWO #17, fluconazole-resistant",4 µg/mL
same,red blood cell lysis LD50,red blood cells,26.9 µg/mL
same,change in MIC with glycerol instead of glucose as carbon source,C. albicans [2],not observed
